{
  "source": "patent US11273217B2",
  "about": "“Cancer treatment composition combining anti-CD26 antibody and other anticancer agent” (Y's AC Co., Ltd., priority 2015, dated 2022)",
  "key": {"[1]": {"test_system": "CD26-positive malignant mesothelioma cell line JMN", "conditions": "mouse, in vivo", "experimental": "NOD/SCID (NOD/LtSz-scid) mice were maintained in a microisolator cage within a specific pathogen-free (SPF) facility and allowed to freely take sterilized diet and sterilized water.\n1×10^7 cultured JMN cells were subcutaneously administered to 6- to 8-week-old female NOD/SCID mice. […] The same amount of PBS was administered to the control group. When a tumor became evidently visible, the tumor was excised, and its size was measured with a vernier caliper. The estimated tumor volume was determined by calculation according to the expression: π/6×L×W×W (Tomayko M M et al., Cancer Chemother Pharmacol. (1989) 24: 148-54). The statistical difference among the average tumor volumes of these groups were determined by Fisher's protected least-square differences (PLSD) multiple comparison test. Statistical analysis was conducted using SPSS software (IBM, Armonk, N.Y.)."}, "[2]": {"test_system": "MESO1 cells", "experiment": "In vivo MESO1 cell growth in SCID mice (tumor weight)", "conditions": "YS110 10 mg/kg, cisplatin 0.5 mg/kg, pemetrexed 50 mg/kg, intraperitoneal, days 1 and 4; tumor weight day 7", "description": "MESO1 cells (3×10^5 cells/animal) were subcutaneously transplanted to the backs of female SCID mice. The day of transplantation was defined as day 0. YS110 (10 mg/kg) alone, cisplatin (0.5 mg/kg)-pemetrexed (50 mg/kg) used concomitantly, or YS110 (10 mg/kg) concomitantly used with the cisplatin-pemetrexed concomitant use was intraperitoneally administered to the mice twice (days 1 and 4). At day 7, their tumors were excised, and the tumor weights were measured. Significant difference was tested by two-tailed t-test (vs Cont)."}, "[3]": {"test_system": "H2452 cells", "experiment": "MTT cell growth assay, H2452", "format": "cell-based", "conditions": "day 2", "description": "(§1) MESO1 or H2452 cells (2×10^3 cells/well) were inoculated to a 96-well plate. One hour later, cisplatin or pemetrexed was added thereto at 10^−9, 10^−8, 10^−7, 10^−6, 10^−5, or 10^−4 M (n=6). At day 2, MTT assay was conducted.\nH2452 cells (2×10^3 cells/well) were inoculated to a 96-well plate. One hour later, the combination of 0.03, 0.3, or 1 μM cisplatin and 0.1, 3, or 10 μg/ml YS110, or the combination of 0.01, 0.1, or 0.3 μM pemetrexed and 0.1, 3, or 10 μg/ml YS110 was added thereto (n=6). At day 2, MTT assay was conducted. Significant difference was tested by two-tailed t-test (vs Cont).\n(§2) MESO1 cells (2×10^3 cells/well) or H2452 cells (2×10^3 cells/well) were inoculated to a 96-well plate. One hour later, 0.3 μM cisplatin-0.1 μM pemetrexed combination, or YS110 (10 μg/ml) plus the 0.3 μM cisplatin-0.1 μM pemetrexed combination was added thereto (n=6). At day 2, MTT assay was conducted. Significant difference was tested by two-tailed t-test (vs Cont).\n(§3) Gemcitabine was studied for its effect on the growth of a mesothelioma cell line. A mesothelioma cell line MESO1, JMN, H2452, or H226 (2×10^3 cells/well) was inoculated to a 96-well plate. One hour later, gemcitabine (10^−9, 10^−8, 10^−7, 10^−6, 10^−5, or 10^−4 M) was added thereto (N=6). 2 days later, MTT assay was conducted. Significant difference was tested by two-tailed t-test (vs Cont).\n(§4) H2452 cells (2×10^3 cells/well) were inoculated to a 96-well plate. One hour later, gemcitabine (0, 10^−8, 3×10^−8, or 10^−7 M) and YS110 (0, 1, 3, or 10 μg/ml) were added thereto in combination. At day 2, MTT assay was conducted. Significant difference was tested by two-tailed t-test (vs Cont). Next, interaction in concomitant use of medications was studied (n=6). The interaction between YS110 and gemcitabine used concomitantly was analyzed by two-way ANOVA.\n(§5) MESO1, JMN, H2452 or H226 cells (2×10^3 cells/well were inoculated to a 96-well plate. One hour later, 3×10^−8 M or 10^−7 M gemcitabine was added thereto by concomitant use with the combination of cisplatin (0, 0.1, 0.3, or 1 μM) and pemetrexed (0, 0.03, 0.1, or 0.3 μM) (n=6). At day 2, MTT assay was conducted.\n(§6) The growth inhibitory effect of gemcitabine (10^−9 to 10^−4 M) was compared using MESO1, H2452, JMN, and H226 cell lines."}, "[4]": {"test_system": "MESO1 cells", "experiment": "Boyden chamber invasion assay, MESO1", "format": "cell-based", "conditions": "cisplatin 0, 3, or 10 μM and YS110 0, 10, or 20 μg/ml; 24 hours", "description": "MESO1 cells or H2452 cells (2.5×10^4 cells/well) were inoculated to a Boyden chamber. One hour later, cisplatin (5, 10, or 30 μM) or pemetrexed (1, 10, or 30 μM) was added thereto (n=5), followed by Boyden chamber invasion assay. 24 hours after the cell inoculation, invasive cells were stained with Diff-Quik-staining kit. Significant difference was tested by two-tailed t-test (vs Cont).\n(§7) MESO1 cells or H2452 cells (2.5×10^4 cells/well) were inoculated to a Boyden chamber. One hour later, the combination of cisplatin (0, 3, or 10 μM) and pemetrexed (0, 10, or 30 μM) was added thereto (n=5), followed by Boyden chamber invasion assay. 24 hours after the cell inoculation, invasive cells were stained with Diff-Quik-staining kit. Significant difference was tested by two-tailed t-test (vs Cont).\nas §7, with “MESO1” for “MESO1 cells or H2452”, “YS110” for “pemetrexed”, “20 μg/ml)” for “30 μM)”, “Cont). Next, the interaction of YS110 with cisplatin-pemetrexed concomitant use was studied. The interaction was analyzed by two-way ANOVA.” for “Cont).”"}, "[5]": {"test_system": "MESO1 cells", "experiment": "MTT cell growth assay, MESO1", "format": "cell-based", "conditions": "day 2", "description": "as §1\nMESO1 cells (2×10^3 cells/well) were inoculated to a 96-well plate. One hour later, the combination of 0.3, 3, or 10 μM cisplatin and 0.1, 3, or 10 μg/ml YS110, or the combination of 0.03, 0.3, or 1 μM pemetrexed and 0.1, 3, or 10 μg/ml YS110 was added thereto. At day 2, MTT assay was conducted. Significant difference was tested by two-tailed t-test (vs Cont).\nas §2, §3\nas §4, with “MESO1” for “H2452”\nas §5\nThe growth inhibitory effects of cisplatin (10^−9 to 10^−4 M) and pemetrexed (10^−9 to 10^−4 M) were compared using the MESO1 and JMN cell lines.\nas §6"}, "[6]": {"conditions": "YS110 10 μg/ml plus 0.3 μM cisplatin-0.1 μM pemetrexed"}, "[7]": {"conditions": "gemcitabine 10^−8, 3×10^−8, or 10^−7 M and YS110 1, 3, or 10 μg/ml"}},
  "data": [
    {"substance": "YS110: humanized anti-CD26 antibody designed based on anti-CD26 mouse antibody 14D10; SEQ ID NO: 17 and 18", "values": [
      {"measurement": "average body weight of the mice compared among the groups", "setting": "[1]", "result": "did not remarkably differ"},
      {"measurement": "effect of YS110 on the in vivo tumor growth inhibitory effect of cisplatin-pemetrexed", "setting": "[2]", "result": "potentiated"},
      {"measurement": "effect of YS110 on the cell growth inhibitory effect of pemetrexed", "setting": "[3]; 0.01, 0.1, or 0.3 μM pemetrexed and 0.1, 3, or 10 μg/ml YS110", "result": "potentiated"},
      {"measurement": "effect of YS110 on the cell growth inhibitory effect of cisplatin", "setting": "[3]; 0.03, 0.3, or 1 μM cisplatin and 0.1, 3, or 10 μg/ml YS110", "result": "potentiated"},
      {"measurement": "effect of YS110 on the cell growth inhibitory effect of cisplatin-pemetrexed", "setting": "[3]; [6]", "result": "potentiated"},
      {"measurement": "effect of YS110 on the growth inhibitory effect of gemcitabine", "setting": "[3]; [7]", "result": "potentiated"},
      {"measurement": "effect of YS110 on the cell invasion inhibitory action of cisplatin-pemetrexed", "setting": "[4]", "result": "potentiated"},
      {"measurement": "effect of YS110 on the cell growth inhibitory effect of pemetrexed", "setting": "[5]; 0.03, 0.3, or 1 μM pemetrexed and 0.1, 3, or 10 μg/ml YS110", "result": "potentiated"},
      {"measurement": "effect of YS110 on the cell growth inhibitory effect of cisplatin", "setting": "[5]; 0.3, 3, or 10 μM cisplatin and 0.1, 3, or 10 μg/ml YS110", "result": "potentiated"},
      {"measurement": "effect of YS110 on the cell growth inhibitory effect of cisplatin-pemetrexed", "setting": "[5]; [6]", "result": "potentiated"},
      {"measurement": "effect of YS110 on the growth inhibitory effect of gemcitabine", "setting": "[5]; [7]", "result": "potentiated"}
    ]}
  ]
}
